Data as given in patent publication US20190117651A1, “COMPOSITION FOR STIMULATING SIRTUIN ACTIVITY” (Bitop AG, priority 2016, published 2019).

Test system: sirtuin activity in the lung tissue
Assay: repeated application of a solution containing ectoine into the lungs of rats; sirtuin activity in the lung tissue
Assay type: in vivo
From the text: The composition proposed by the invention can generally be adopted for the treatment and/or prophylaxis of aging symptoms and for influencing self-renewal processes, cell differentiation and cell proliferation. The composition is of particular importance in the treatment of aging symptoms of the lung, especially of the senile emphysema. This is characterized by the degeneration of the alveolar structures in the lungs, which leads to a reduction of the lung surface which is available for the exchange of gas. In such cases, the patient finds it hard to breathe properly. […] The aging of tissue is attributable to an altered gene activity during the self-renewal and cell differentiation processes in (lung) tissue, which is regulated by the accessibility of DNA by histones and is thus also dependent on sirtuins.

CC1=NCC[C@@H](C(=O)O)N1 (stereo in doubt) [ectoine, 2-methyl-1,4,5,6-tetrahydropyrimidine-4-carboxylic acid]
loss of sirtuin activity in the lung tissue: significant reduction of the loss of sirtuin activity
